Data from patent US12319655B2, “RAF kinase inhibitors and methods of use thereof” (Deciphera Pharmaceuticals, LLC, priority 2021, dated 2025).

Key:
[1] = molecular target: C-Raf kinase (SEQ. ID NO: 3) (Homo sapiens (Human), UniProt P04049, Y340D/Y341D); test: Biochemical Assay for C-Raf (1); conditions: Table J, assay version (1); read-out: CRAF (1) IC50
Procedure, shortened: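 IC50 values come from a four-parameter fit of percent inhibition, using the reaction rate over 4–5 h of a 6 h continuous 340 nm read at 30 °C. The enzyme mix was C-Raf 0.43 nM, MEK substrate 30.1 nM and ATP 1 mM, in a PK/LDH NADH-coupled format in Tris pH 7.5 with 1% DMSO.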

A375 cells = test: A375 Cell Proliferation Assay (1); assay type: cell-based; conditions: Homo sapiens, A-375
Procedure, shortened: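 Resazurin fluorescence (excitation 540 nm, emission 600 nm, after a further 5-6 h) gave IC50s from triplicate compound dilution series.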

[2] = molecular target: B-Raf (V600E) (SEQ. ID NO: 4) kinase (Homo sapiens (Human), UniProt P15056, V600E); test: Biochemical Assay for B-Raf (V600E) (1); conditions: Table J, BRAF V600E, assay version (1); read-out: BRAF VE (1) IC50
Chain of B-Raf (V600E) (SEQ. ID NO: 4) kinase (P15056 416-766 V600E): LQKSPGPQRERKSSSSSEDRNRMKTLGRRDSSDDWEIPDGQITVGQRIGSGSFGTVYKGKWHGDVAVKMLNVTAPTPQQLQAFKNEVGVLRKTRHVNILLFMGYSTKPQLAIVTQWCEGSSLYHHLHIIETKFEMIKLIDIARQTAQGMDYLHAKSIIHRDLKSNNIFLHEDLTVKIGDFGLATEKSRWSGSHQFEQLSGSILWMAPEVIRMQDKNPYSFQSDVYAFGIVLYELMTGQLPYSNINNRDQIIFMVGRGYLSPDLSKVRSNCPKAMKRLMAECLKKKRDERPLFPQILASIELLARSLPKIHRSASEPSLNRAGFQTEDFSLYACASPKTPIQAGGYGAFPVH
Procedure, shortened: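 Serially diluted compounds tested against 0.03 nM enzyme with 30.1 nM MEK substrate and 1 mM ATP (Tris pH 7.5, 15 mM MgCl2), ATP use coupled to NADH loss via PK/LDH. A340 monitored continuously 6 h, 30 °C; IC50 fitted (four-parameter) from the 3–4 h rate versus no-compound and known-inhibitor controls.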

WM3928 cells = test: WM3928 Cell Proliferation Assay (1); assay type: cell-based
Procedure, shortened: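 IC50 was derived from resazurin fluorescence (ex 540, em 600 nm) after a 6–7 h dye incubation. Before that, cells had 67–72 h of compound exposure at 37 °C, 5% CO2.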

Chain of C-Raf kinase (SEQ. ID NO: 3) (P04049 307-648 Y340D/Y341D): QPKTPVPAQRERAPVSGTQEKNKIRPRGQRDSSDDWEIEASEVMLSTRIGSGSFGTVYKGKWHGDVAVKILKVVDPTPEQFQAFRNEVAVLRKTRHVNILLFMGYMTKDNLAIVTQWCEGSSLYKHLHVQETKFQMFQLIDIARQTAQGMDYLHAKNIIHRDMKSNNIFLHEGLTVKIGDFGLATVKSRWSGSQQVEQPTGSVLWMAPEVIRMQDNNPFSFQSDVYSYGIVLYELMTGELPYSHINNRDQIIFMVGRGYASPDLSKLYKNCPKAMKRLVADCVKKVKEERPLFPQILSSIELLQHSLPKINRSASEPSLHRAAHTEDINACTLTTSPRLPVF

SMILES | IC50 [1] | IC50 (A375 cells) | IC50 [2] | IC50 (WM3928 cells)
CCOc1cc(-c2cc(NC(=O)c3ccnc(C(F)(F)F)c3)ccc2C)cc(-c2ccnc(NC(=O)C3CC3)c2)n1 [Example 12] | ≤ 100 nM | 100 to 500 nM | ≤ 100 nM | –
Cc1ccc(NC(=O)c2ccnc(C(F)(F)F)c2)cc1-c1cc(-c2ccnc(NC(=O)C3CC3)c2)n(C)c(=O)c1 [Example 13] | ≤ 100 nM | 1000 to 10000 nM | ≤ 100 nM | –
CC(=O)Nc1cc(-c2cc(-c3cc(NC(=O)c4ccnc(C(F)(F)F)c4)ccc3C)cc(C3CC3)n2)ccn1 [Example 14] | ≤ 100 nM | ≤ 100 nM | ≤ 100 nM | –
CC(=O)Nc1cc(-c2cc(-c3cc(NC(=O)c4ccnc(C(F)(F)F)c4)ccc3C)cc(N3CCOCC3)n2)ccn1 [Example 15] | ≤ 100 nM | ≤ 100 nM | ≤ 100 nM | –
Cc1ccc(NC(=O)c2ccnc(C(F)(F)F)c2)cc1-c1ccnc(-c2ccnc(N)c2)c1 [Example 16, N-(3-(2′-amino-[2,4′-bipyridin]-4-yl)-4-methylphenyl)-2-(trifluoromethyl)isonicotinamide] | ≤ 100 nM | 1000 to 10000 nM | ≤ 100 nM | 1000 to 10000 nM
Cc1ccc(NC(=O)c2ccnc(C(F)(F)F)c2)cc1-c1ccnc(-c2ccnc(NC(=O)CN(C)C)c2)c1 [Example 17] | ≤ 100 nM | 100 to 500 nM | ≤ 100 nM | –
Cc1ccc(NC(=O)c2ccnc(C(F)(F)F)c2)cc1-c1ccnc(-c2ccnc3c2CC(=O)N3)c1 [Example 18] | ≤ 100 nM | 1000 to 10000 nM | ≤ 100 nM | –
CC(=O)Nc1cc(-c2cc(-c3cc(NC(=O)c4ccnc(C(C)(C)C#N)c4)ccc3C)ccn2)ccn1 [Example 19] | ≤ 100 nM | ≤ 100 nM | ≤ 100 nM | –
Cc1cc(-c2cc(NC(=O)c3ccnc(C(F)(F)F)c3)ccc2C)cc(-c2ccnc3c2CC(=O)N3)n1 [Example 20] | ≤ 100 nM | 1000 to 10000 nM | ≤ 100 nM | –
Cc1ccc(NC(=O)c2cc(CN(C)C)cc(C(F)(F)F)c2)cc1-c1cncc(-c2ccnc(NC(=O)C3CC3)c2)n1 [Example 185] | ≤ 100 nM | ≤ 100 nM | ≤ 100 nM | ≤ 100 nM
Cc1ccc(NC(=O)c2ccnc(C(C)(C)F)c2)cc1-c1ccnc(-c2ccnc(NC(=O)C3CC3)c2)n1 [Example 186] | ≤ 100 nM | ≤ 100 nM | ≤ 100 nM | ≤ 100 nM
Cc1ccc(NC(=O)c2ccnc(C3(C#N)CC3)c2)cc1-c1nccc(-c2ccnc(NC(=O)C3CC3)c2)n1 [Example 187] | ≤ 100 nM | ≤ 100 nM | ≤ 100 nM | ≤ 100 nM
Cc1ccc(NC(=O)c2ccnc(C(F)F)c2)cc1-c1ccnc(-c2ccnc(NC(=O)C3CC3)c2)n1 [Example 189] | ≤ 100 nM | 100 to 500 nM | ≤ 100 nM | ≤ 100 nM
COC(C)(C)c1cc(C(=O)Nc2ccc(C)c(-c3ccnc(-c4ccnc(NC(=O)C5CC5)c4)n3)c2)ccn1 [Example 190] | ≤ 100 nM | ≤ 100 nM | ≤ 100 nM | ≤ 100 nM
CNC(=O)c1cc(-c2cccc(-c3cc(NC(=O)c4ccnc(C(C)(C)C#N)c4)ccc3C)c2)cnn1 [Example 191] | ≤ 100 nM | ≤ 100 nM | ≤ 100 nM | ≤ 100 nM
CNC(=O)c1cc(-c2cccc(-c3cc(NC(=O)c4ccnc(C(C)(C)C#N)c4)cnc3C)c2)ccn1 [Example 192] | ≤ 100 nM | ≤ 100 nM | ≤ 100 nM | ≤ 100 nM
Cc1ncc(NC(=O)c2ccnc(C(C)(C)C#N)c2)cc1-c1ccnc(-c2ccnc(NC(=O)C3CC3)c2)n1 [Example 193] | ≤ 100 nM | ≤ 100 nM | ≤ 100 nM | ≤ 100 nM
CNC(=O)c1cc(-c2nccc(-c3cc(NC(=O)c4ccnc(C(C)(C)C#N)c4)cnc3C)n2)ccn1 [Example 194] | 100 to 500 nM | 500 to 1000 nM | ≤ 100 nM | 100 to 500 nM
CNC(=O)c1cc(-c2nc(-c3cc(NC(=O)c4ccnc(C(C)(C)C#N)c4)ccc3C)cc(C3CC3)n2)ccn1 [Example 196] | 100 to 500 nM | ≤ 100 nM | ≤ 100 nM | 100 to 500 nM
Cc1ccc(NC(=O)c2ccnc(C(C)(C)C#N)c2)cc1-c1cccc(-c2cc(NC(=O)C3(C)CC3)ncn2)c1 [Example 197] | 100 to 500 nM | ≤ 100 nM | ≤ 100 nM | ≤ 100 nM
CNC(=O)c1cc(-c2ccnc(-c3cc(NC(=O)c4ccnc(C(C)(C)C#N)c4)cnc3C)n2)ccn1 [Example 199] | 100 to 500 nM | 1000 to 10000 nM | ≤ 100 nM | 1000 to 10000 nM

SMILES | IC50 [1] | IC50 (A375 cells) | IC50 [2] | IC50 (WM3928 cells)
Cc1ccc(NC(=O)c2ccnc(C(C)(C)C#N)c2)cc1-c1cccc(-c2cc(NC(=O)C3(F)CC3)ncn2)c1 [Example 200] | ≤ 100 nM | ≤ 100 nM | ≤ 100 nM | ≤ 100 nM
CNC(=O)c1cc(-c2cccc(-c3cc(NC(=O)c4ccnc(C(C)(C)C#N)c4)cnc3C)c2)cnn1 [Example 201] | 100 to 500 nM | 100 to 500 nM | ≤ 100 nM | 100 to 500 nM
Cc1ccc(NC(=O)c2cc(CN(C)C)cc(C(F)(F)F)c2)cc1-c1cccc(-c2cc(NC(=O)C3CC3)ncn2)c1 [Example 202] | ≤ 100 nM | ≤ 100 nM | ≤ 100 nM | ≤ 100 nM
Cc1ccc(NC(=O)c2ccnc(C3(C#N)CC3)c2)cc1-c1cccc(-c2cc(NC(=O)C3CC3)ncn2)c1 [Example 203] | ≤ 100 nM | ≤ 100 nM | ≤ 100 nM | ≤ 100 nM
CNC(=O)c1cc(-c2cccc(-c3cc(NC(=O)c4ccnc(C(C)(C)C#N)c4)cnc3C)c2)ncn1 [Example 204] | 100 to 500 nM | 100 to 500 nM | ≤ 100 nM | 100 to 500 nM
CNC(=O)c1cc(-c2cc(-c3cc(NC(=O)c4ccnc(C(C)(C)C#N)c4)ccc3F)ccn2)ccn1 [Example 205] | ≤ 100 nM | 100 to 500 nM | ≤ 100 nM | 100 to 500 nM
Cc1ncc(NC(=O)c2ccnc(C(C)(C)C#N)c2)cc1-c1cccc(-c2cc(N)ncn2)c1 [Example 207] | ≤ 100 nM | 1000 to 10000 nM | ≤ 100 nM | –
Cc1cc(-c2cc(NC(=O)C3CC3)ncn2)cc(-c2cc(NC(=O)c3ccnc(C(C)(C)C#N)c3)ccc2C)c1 [Example 212] | ≤ 100 nM | ≤ 100 nM | ≤ 100 nM | –
Cc1ncc(NC(=O)c2ccnc(C(C)(C)C#N)c2)cc1-c1cccc(-c2cc(NC(=O)C(C)(C)C)ncn2)c1 [Example 213] | 500 to 1000 nM | – | ≤ 100 nM | 100 to 500 nM
CNC(=O)c1cc(-c2cc(-c3cc(NC(=O)c4ccnc(C(C)(C)F)c4)ccc3C)ccn2)ccn1 [Example 214] | ≤ 100 nM | ≤ 100 nM | ≤ 100 nM | ≤ 100 nM
CNC(=O)c1cc(-c2cc(-c3cc(NC(=O)c4cnnc(C5CC5)c4)ccc3C)ccn2)ccn1 [Example 215] | ≤ 100 nM | 500 to 1000 nM | ≤ 100 nM | 500 to 1000 nM
Cc1ccc(NC(=O)c2ccnc(C(C)(C)C#N)c2)cc1-c1cc(-c2cc(NC(=O)C3CC3)ncn2)cc(C2CC2)c1 [Example 216] | 100 to 500 nM | ≤ 100 nM | ≤ 100 nM | ≤ 100 nM
COC(C)(C)C(=O)Nc1cc(-c2cc(-c3cc(NC(=O)c4ccnc(C(C)(C)C#N)c4)ccc3C)ccn2)ccn1 [Example 237] | 100 to 500 nM | 1000 to 10000 nM | ≤ 100 nM | –
CC(C)(C#N)c1cc(C(=O)Nc2ccc(C#N)c(-c3cccc(-c4cc(NC(=O)C5CC5)ncn4)c3)c2)ccn1 [Example 240] | ≤ 100 nM | 100 to 500 nM | ≤ 100 nM | –
CNC(=O)c1cc(-c2ccnc(-c3cc(NC(=O)c4ccnc(C(C)(C)F)c4)ccc3C)n2)ccn1 [Example 246] | ≤ 100 nM | 100 to 500 nM | ≤ 100 nM | –
CNC(=O)c1cc(-c2cc(-c3cc(NC(=O)c4ccnc(C(C)(C)C#N)c4)ccc3C#N)ccn2)ccn1 [Example 247] | 100 to 500 nM | 1000 to 10000 nM | ≤ 100 nM | –
CNC(=O)c1cc(-c2cc(-c3cc(NC(=O)c4ccnc(C(C)(C)C#N)c4)ccc3F)cc(C)n2)ccn1 [Example 259] | ≤ 100 nM | 500 to 1000 nM | ≤ 100 nM | –
CCNC(=O)c1cc(-c2cc(-c3cc(NC(=O)c4ccnc(C(C)(C)C#N)c4)ccc3C)ccn2)ccn1 [Example 266] | ≤ 100 nM | 100 to 500 nM | ≤ 100 nM | –
CNC(=O)c1cc(-c2ccnc(-c3cc(NC(=O)c4ccnc(C(C)(C)OC)c4)ccc3C)n2)ccn1 [Example 268] | 100 to 500 nM | 100 to 500 nM | ≤ 100 nM | –
Cc1ncc(NC(=O)c2ccnc(C(C)C)c2)cc1-c1cccc(-c2ccnc(NC(=O)C3CC3)c2)n1 [Example 269] | ≤ 100 nM | ≤ 100 nM | ≤ 100 nM | –
Cc1cc(F)c(NC(=O)c2ccnc(C(C)(C)F)c2)cc1-c1cncc(-c2ccnc(NC(=O)C3CC3)c2)n1 [Example 276] | ≤ 100 nM | ≤ 100 nM | ≤ 100 nM | –
